Measured values reported in ChEMBL document CHEMBL2413002, “A convenient synthesis of lubeluzole and its enantiomer: evaluation as chemosensitizing agents on human ovarian adenocarcinoma and lung carcinoma cells” (Bioorg Med Chem Lett, 2013).

What was measured:
[1] = system: A2780; test: Cytotoxicity against human A2780 cells after 72 hrs by MTT assay; assay type: functional, cell-based; conditions: A2780, 72 h
[2] = system: A549; test: Cytotoxicity against human A549 cells after 72 hrs by MTT assay; assay type: functional, cell-based; conditions: A549, 72 h
[3] = system: A2780; test: Antiproliferative activity against human A2780 cells at 0.005 uM after 72 hrs by MTT assay; assay type: functional; conditions: A2780, 72 h
[4] = system: A549; test: Antiproliferative activity against human A549 cells at 0.005 uM after 72 hrs by MTT assay; assay type: functional; conditions: A549, 72 h

## CN(c1nc2ccccc2s1)C1CCN(C[C@@H](O)COc2ccc(F)c(F)c2)CC1
[1]
  IC50: 14 µM
[2]
  IC50: 18 µM

## COc1cccc2c1C(=O)c1c(O)c3c(c(O)c1C2=O)C[C@@](O)(C(=O)CO)C[C@@H]3O[C@H]1C[C@H](N)[C@H](O)[C@H](C)O1 [DOXORUBICIN]
[1]
  IC50: 0.023 µM

## CN(c1nc2ccccc2s1)C1CCN(C[C@H](O)COc2ccc(F)c(F)c2)CC1 [LUBELUZOLE]
[3]
  inhibition at 0.005 µM: 4.3%
[1]
  IC50: 5.7 µM
[4]
  inhibition at 0.005 µM: 5.2%
[2]
  IC50: 14 µM

## CC(=O)O[C@H]1C(=O)[C@@]2(C)[C@H]([C@H](OC(=O)c3ccccc3)[C@]3(O)C[C@H](OC(=O)[C@H](O)[C@@H](NC(=O)c4ccccc4)c4ccccc4)C(C)=C1C3(C)C)[C@]1(OC(C)=O)CO[C@@H]1C[C@@H]2O [PACLITAXEL]
[2]
  IC50: 0.014 µM
